{"source": "patent US5158969A", "about": "“Indole derivatives as potassium channel blockers” (NeuroSearch A/S, priority 1991, dated 1992)", "key": {"[1]": {"test_system": "immobility of female NMRI mice", "test": "Tail suspension test", "type": "in vivo", "conditions": "30 min before test, 6 min suspension", "procedure": "1-(4-methoxyphenyl)-indole has been studied in the socalled tail suspension test as described by L. Steru et al., Prog. Neuro-Psychopharmacol. Biol. Psychiatry 11, 659-671 (1987). Female NMRI mice (20-25 g, 10 mice per dose) were suspended by the tail with adhesive tape for 6 min. The mice alternated between phases of activity (trying to escape) and immobility (despair). The duration of immobility was recorded manually. Saline, 1-(4-methoxyphenyl)-indole or desipramine were administered i.p. 30 min before the start of the test."}, "[2]": {"test_system": "social recognition memory of adult male Wistar rats", "test": "Social recognition model", "type": "in vivo, rat", "procedure": "In short, adult male Wistar rats (350 g) were housed individually in normal transparent plexiglas cages. After a habituation period of at least 24 hours a juvenile male Wistar rat (25-30 days old) was introduced in the cage in a 5 min period (first exposure). A second exposure of the same juvenile rat for another 5 min period was performed either 5 min later or 120 min later. In one case, another juvenile rat was introduced 120 min after an exposure of a juvenile rat. The adult rat was administered either saline or different doses of 1-(4-methoxyphenyl)-indole i.p. 15 min before the first exposure of the juvenile rat.\nIn both sessions (1st and 2nd exposure period) the total duration of investigatory behaviour consisting of sniffing, nosing and grooming performed by the adult rat was noted.\nThe adult rat (n=10-20) used generally 100-110 sec investigating the juvenile rat on the first exposure. […] The memory seems basically to be based on recognition of urine odour."}, "BKCa channel [3]": {"test_system": "BKCa channel", "test": "Single channel patch-clamp in pancreatic β-cells", "type": "cell-based", "procedure": "(§1) All electrophysiological experiments were performed with patch-clamp technique (Hamill et al., Pflugers Arch. 391, 85-100 (1981). The ion composition of the internal solution was (in mM) 4 NaCl, 140 KCl, 1 CaCl2, 1 MgCl2, 2 EGTA, 10 HEPES and the external solution contained 140 NaCl, 4 Kcl, 2 CaCl2, 1 MgCl2 and 10 HEPES."}, "BKCa channel [4]": {"test_system": "BKCa channel", "test": "Single channel patch-clamp, inside-out patches of bovine aortic smooth muscle cells", "type": "cell-based", "conditions": "20 μM", "procedure": "as §1"}}, "data": [{"smiles": "CNCCCN1c2ccccc2CCc2ccccc21", "note": "[Desipramine, reference compound]", "values": [{"measurement": "duration of immobility", "setting": "[1]; doses between 1 and 30 mg/kg i.p.", "value": "reduced the immobility dose-dependently"}]}, {"smiles": "COc1ccc(-n2ccc3ccccc32)cc1", "note": "[1-(4-methoxyphenyl)-indole]", "values": [{"measurement": "duration of immobility", "setting": "[1]; doses between 10 and 100 mg/kg i.p.", "value": "inhibited the immobility dose-dependently"}, {"measurement": "investigatory behaviour on the second exposure with a new (unknown) juvenile rat", "setting": "[2]; 30 mg/kg i.p. 15 min before first exposure, new juvenile rat", "value": "normal investigatory behaviour was seen"}, {"measurement": "investigatory behaviour on the first exposure", "setting": "[2]; 7.5-30 mg/kg i.p. 15 min before first exposure", "value": "did not interfere with the adult rats investigatory behaviour"}, {"measurement": "investigatory behaviour on the second exposure of the same juvenile rat", "setting": "[2]; 7.5-30 mg/kg i.p., second exposure 120 min later, same juvenile rat", "value": "significant decrease in investigatory behaviour"}, {"measurement": "block of the BKCa channel", "setting": "BKCa channel [3]", "value": "potently blocked the BKCa channel"}, {"measurement": "block of the BKCa channel", "setting": "BKCa channel [4]", "value": "potently at 20 μM blocked the BKCa channel"}]}]}
